# Assay results from patent publication US11229628B2, “TRPA1 and TRPV4 inhibitors and methods of using the same for organ-specific inflammation and itch” (Duke University, priority 2015, dated 2022).
# “Also recorded” adds a separate entry of the source.
# How the values were obtained:
# [1] = tested on: mouse primary keratinocytes; experiment: Histamine receptor-mediated Ca++ transients in mouse primary keratinocytes (fura-2); format: cell-based
# Description: Mouse primary keratinocytes were prepared as described in Moore et al. (Proc Natl Acad Sci USA, 2013, 110, E3225-3416). Cells were pre-treated, for 10 min with 10 μM GSK205. Then 100 μM of each, histamine, 2-Pyridylethylamine (selective activator for H1R), and 4-Methylhistamine (selective activator for H4R; both H1R and H4R known to be expressed in rodent and human keratinocytes), were applied, and fura-2 loaded keratinocytes were imaged ratiometrically, as described (Moore et al. Proc Natl Acad Sci USA, 2013, 110, E3225-3416; Li, et al. Environ Health Perspect, 2011, 119, 784-9316). Shown in blue (top curve) is the average signal of ≥75 cells. Note the robust signal for histamine, and in response to selective activator of H1R, less prominent for H4R, in keeping with previous findings on expression levels of these channels in keratinocytes.
# ET1 secretion by 1° MK = experiment: ET1 secretion by non-stimulated 1° MK (ELISA of supernatant); format: cell-based, mouse
# Description: FIG. 8: Central role for KC TRPV4 in UVB-evoked Ca^++ signaling and nocifensive behavior—ET1-related supplementary findings. (A) Augmentation of GSK101-evoked Ca^++ signaling by ET1. Shown are averaged Ca^++ measurements (fura-2) in response to 5 nM GSK101. […] (B) ET1 secretion by non-stimulated 1° MK depends on TRPV4 and PLC. Shown are relative ET1 concentrations (determined by ELISA, pg/mL; vehicle-treated and WT control normalized to 100) in supernatant of non-stimulated 1° MK. Note the clear dependence on TRPV4, as indicated by a 50% reduction in Trpv4^−/− 1° MK. […] In addition, PLC-inhibitor robustly affects ET1 secretion in WT and Trpv4^−/− 1° MK. (C) ET1 expression by UVB-exposed 1° MK depends on TRPV4 and PLC—immunocytochemistry. Shown is specific ET1 immunolabeling in 1° MK, exposed to UVB using the UVB-LEDs, as for Ca^++ imaging. Use of the UVB-LED device precluded application of a ET1 ELISA, only irradiated cells could be examined. […] (D) ET1 expression by UVB-exposed 1° MK depends on TRPV4 and PLC—quantification of immunocytochemistry.
# We tested whether UVB causes ET1 upregulation in a TRPV4-dependent manner. Given the exquisite wave-length dependence of ET1 expression in 1° MKs, we resorted to the UVB-LED device as for Ca++ imaging (FIG. 6A and FIG. 2A-D). […] Consistent with its effects on UVB-evoked Ca++ transients, PLC-inhibitor U73122 also dampened ET1 expression. […] This leads to TRPV4-dependent Ca++ signaling, which in turn amplifies ET1 signaling in a paracrine/autocrine fashion.
# [2] = tested on: primary mouse epidermal keratinocytes (1° MK); experiment: UVB-evoked Ca++ signaling in primary mouse keratinocytes (fluo-4 imaging); format: cell-based
# Description: Ca++ imaging of 1° MK was conducted following routine procedures. For UVB stimulation, a customized device was built. The system comprised a printed circuit board for electrical interconnects and mechanical support and an ultraviolet light-emitting diode (UV LED).
# The operating wavelength was 295 nm (FIG. 2A), with a full-width half-max of 12 nm. The optical power was 500 mW. The focal point was aimed at the plane of the upper surface of the quartz coverslip, which was used to minimize UV absorption along the optical path towards the cells (FIG. 2A-C). The optical intensity at the focal point was estimated to be 150 mW/mm^2.
# Ca++ imaging of mouse 1° MK in response to chemical activation of TRPV4 was conducted after loading with 2 μM fura2-AM, following a ratiometric Ca2+ imaging protocol with 340/380 nm […] for dual excitation. Ratios of emissions were acquired at 0.5 Hz. ΔR/R0 was determined as the fraction of the increase of a given ratio over baseline ratio, divided by baseline ratio. For stimulation of cells with UVB, where fura-2 was not suitable because of the proximity of stimulation with 340/380 nm and 295 nm, 2 μM fluo4-AM was used instead. Ca++ imaging was carried out at 488 nm excitation, acquisition of emissions at 0.5 Hz, expressed as ΔF/F0. In the custom-built UV optical system, UV LEDs were capped with a ball lens, a transparent optical window in the shape of a hemispherical lens (FIG. 2B). The LED output optical beam focused at 15-20 mm from the lens, with a spot diameter of approximately 1.5˜2.0 mm (FIG. 2C). […] The thermal equilibration stage was set for physiological temperature.
# To further dissect the underlying mechanisms involved, we built a customized device for specific and narrow-band UVB stimulation of primary mouse epidermal keratinocytes (1° MK) cultured in vitro (FIG. 6A-B and FIG. 2A-D). This allowed use of the Ca++ sensitive dye, fluo-4, and assessment of 1° MK's Ca++ dynamics following UVB exposure (FIG. 6B). The elicited Ca++ signal was obliterated by a UV-refracting glass coverslip, underscoring the strict dependence of the calcium response on UVB (FIG. 6C and FIG. 2A).
# [3] = UVB permeation of foot-pad skin (sunscreen test); design: species or system mouse; details: topically applied; GSK205 5 mM
# Description: The UV LED was powered with 20 mA of current, resulting in 500 μW of optical power in a circular focal spot 1.5 mm in diameter, with 70% of the total flux in a 0.5 mm beam radius. The UV optical power transmitted through the sample was detected by a Hamamatsu S127-66BR UV detector, and the output of the photodetector was measured using a Keithley 236 source measure unit. Next, the foot-pad epidermis of a mouse was measured for UV transmission by placing it on a quartz coverslip and exposure to the UV beam. The vehicle-control group was treated with the alcohol and glycerol solution only. Another control group consisted of a commercially-available SPF100 preparation sunscreen in form of a cream, which was applied similar to the vehicle-control. The data for the GSK205 and sunscreen was normalized to this control data.
# To validate these finding, we tested UVB absorption in GSK205-treated paw-pad skin, and whether GSK205 thus functions as sunscreen.
smiles,measurement,setting,value
CN(CCc1ccc(Nc2nc(-c3cccnc3)cs2)cc1)Cc1ccccc1 [GSK205],histamine-Ca++ response,"[1]; 10 μM GSK205 10 min pre-treatment, 100 μM histamine",eliminated completely
same,Ca++ response to activation of H1R,"[1]; 10 μM GSK205, 100 μM 2-Pyridylethylamine",eliminated completely
same,Ca++ response to H4R,"[1]; 10 μM GSK205, 100 μM 4-Methylhistamine",significantly attenuated
same,ET1 secretion by non-stimulated 1° MK,ET1 secretion by 1° MK,significant down-regulation
same,ET1-augmented UVB-evoked Ca++ signaling,[2]; UVB and ET1 co-exposure,greatly diminished
same,UVB-evoked Ca++ signaling,"[2]; fluo-4 ΔF/F0, GSK205 20 μM",very similar response to that of Trpv4−/− 1° MK; also recorded: strongly down-regulated; also recorded: significant attenuation
same,UVB permeation of paw-pad skin,[3],equal UVB permeation; also recorded: absence of a change in UVB permeation
